Measured values as given in US8153641B2, “Compounds and methods for kinase modulation, and indications therefor” (Plexxikon Inc., priority 2008, dated 2012).

Columns and labels:
Assay type in all cases: biochemical
B-Raf = B-Raf (Homo sapiens, UniProt P15056); test: Kinase activity assay, B-Raf; settings: read-out: activity toward kinase B-Raf, IC50
B-Raf V600E = B-Raf V600E (Homo sapiens, UniProt P15056, V600E); test: Kinase activity assay, B-Raf V600E; settings: read-out: activity toward kinase B-Raf V600E, IC50
C-Raf = C-Raf (Homo sapiens, UniProt P04049); test: Kinase activity assay, C-Raf; settings: read-out: activity toward kinase C-Raf, IC50
Fms = Fms (Homo sapiens, UniProt P07333); test: Kinase activity assay, Fms; settings: read-out: activity toward kinase Fms, IC50
Fms, sequence (P07333 20-972): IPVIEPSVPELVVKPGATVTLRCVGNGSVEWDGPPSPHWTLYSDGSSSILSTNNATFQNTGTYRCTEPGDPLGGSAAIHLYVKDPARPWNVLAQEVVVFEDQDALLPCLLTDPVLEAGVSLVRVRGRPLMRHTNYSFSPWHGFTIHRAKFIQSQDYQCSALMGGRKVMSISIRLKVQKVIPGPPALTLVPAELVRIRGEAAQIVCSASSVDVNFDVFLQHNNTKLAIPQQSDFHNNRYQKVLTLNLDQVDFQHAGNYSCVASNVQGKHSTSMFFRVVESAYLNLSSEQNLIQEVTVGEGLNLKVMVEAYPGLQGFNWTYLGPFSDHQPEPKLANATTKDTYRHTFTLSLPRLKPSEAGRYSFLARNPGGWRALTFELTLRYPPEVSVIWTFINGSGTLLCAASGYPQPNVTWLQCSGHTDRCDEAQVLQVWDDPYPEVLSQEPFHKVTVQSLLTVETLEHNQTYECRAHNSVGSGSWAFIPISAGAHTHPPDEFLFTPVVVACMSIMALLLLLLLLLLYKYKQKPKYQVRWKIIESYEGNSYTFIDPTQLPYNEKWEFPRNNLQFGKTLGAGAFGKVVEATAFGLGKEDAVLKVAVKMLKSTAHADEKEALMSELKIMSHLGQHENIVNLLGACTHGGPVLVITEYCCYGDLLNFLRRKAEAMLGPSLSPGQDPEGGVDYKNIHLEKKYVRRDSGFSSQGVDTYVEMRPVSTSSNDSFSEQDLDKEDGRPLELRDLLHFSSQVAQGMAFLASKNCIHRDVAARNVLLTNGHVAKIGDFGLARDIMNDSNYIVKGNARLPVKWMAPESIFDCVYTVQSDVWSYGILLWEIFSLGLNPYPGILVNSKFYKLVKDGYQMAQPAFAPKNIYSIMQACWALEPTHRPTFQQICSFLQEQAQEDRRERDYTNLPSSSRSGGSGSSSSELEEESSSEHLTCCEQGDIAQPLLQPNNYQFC

B-Raf, sequence (P15056 whole entry): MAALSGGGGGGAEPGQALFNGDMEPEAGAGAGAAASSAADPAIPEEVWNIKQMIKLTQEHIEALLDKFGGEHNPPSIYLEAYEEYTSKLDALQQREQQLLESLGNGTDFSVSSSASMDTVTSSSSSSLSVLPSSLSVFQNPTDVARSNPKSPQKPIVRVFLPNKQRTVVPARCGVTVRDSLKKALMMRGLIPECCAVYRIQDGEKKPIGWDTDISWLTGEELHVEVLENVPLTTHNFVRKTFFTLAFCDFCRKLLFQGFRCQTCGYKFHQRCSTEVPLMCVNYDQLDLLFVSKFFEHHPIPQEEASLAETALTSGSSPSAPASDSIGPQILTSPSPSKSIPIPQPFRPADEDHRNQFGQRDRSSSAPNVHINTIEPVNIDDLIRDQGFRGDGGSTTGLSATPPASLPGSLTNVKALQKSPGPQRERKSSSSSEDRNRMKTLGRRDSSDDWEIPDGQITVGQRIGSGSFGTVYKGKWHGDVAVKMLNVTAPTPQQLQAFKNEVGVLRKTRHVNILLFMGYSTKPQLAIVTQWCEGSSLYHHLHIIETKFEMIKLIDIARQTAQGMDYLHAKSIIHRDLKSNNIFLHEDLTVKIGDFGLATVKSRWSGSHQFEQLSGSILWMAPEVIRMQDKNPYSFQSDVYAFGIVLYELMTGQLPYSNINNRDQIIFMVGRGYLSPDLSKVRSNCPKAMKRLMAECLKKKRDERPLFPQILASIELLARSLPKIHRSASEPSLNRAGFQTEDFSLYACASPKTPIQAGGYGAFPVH
B-Raf V600E, sequence (P15056 whole entry V600E): as the sequence (P15056 whole entry) above, with V600E counted along it
C-Raf, sequence (P04049 whole entry): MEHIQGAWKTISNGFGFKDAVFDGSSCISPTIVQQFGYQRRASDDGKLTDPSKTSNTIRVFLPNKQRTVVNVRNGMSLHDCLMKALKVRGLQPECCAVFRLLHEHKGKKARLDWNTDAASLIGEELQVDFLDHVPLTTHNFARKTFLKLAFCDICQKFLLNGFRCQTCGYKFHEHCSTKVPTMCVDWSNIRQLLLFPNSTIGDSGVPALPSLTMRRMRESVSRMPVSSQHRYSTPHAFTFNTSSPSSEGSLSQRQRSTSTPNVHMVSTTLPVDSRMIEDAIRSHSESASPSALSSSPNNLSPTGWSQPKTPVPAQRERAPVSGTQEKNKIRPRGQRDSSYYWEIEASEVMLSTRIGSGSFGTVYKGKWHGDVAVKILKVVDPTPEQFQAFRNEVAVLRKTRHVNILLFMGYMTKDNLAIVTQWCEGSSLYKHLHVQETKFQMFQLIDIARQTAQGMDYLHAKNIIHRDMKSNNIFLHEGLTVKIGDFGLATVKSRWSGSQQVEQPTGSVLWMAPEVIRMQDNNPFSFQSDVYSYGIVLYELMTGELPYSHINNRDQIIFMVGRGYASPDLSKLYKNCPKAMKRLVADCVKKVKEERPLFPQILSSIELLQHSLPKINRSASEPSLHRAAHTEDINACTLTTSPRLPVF

IC50 (B-Raf): ≤ 10 µM
IC50 (B-Raf V600E): ≤ 10 µM
IC50 (C-Raf): ≤ 10 µM
IC50 (Fms): ≤ 10 µM
SMILES: O=C(c1c(F)ccc(NS(=O)(=O)c2cccnc2)c1F)c1c[nH]c2ncncc12 [Compound P-0066, Pyridine-3-sulfonic acid [2,4-difluoro-3-(7H-pyrrolo[2,3-d]pyrimidine-5-carbonyl)-phenyl]-amide]
